Among the data in paper PMC2923838 (Chemical research in toxicology, 2009) are inhibition values, retold here.

The assay deals with D-amino acid oxidase (DAAO) (Sus scrofa, UniProt P00371). As to the kind of experiment: […] benzoate with porcine DAAO and D-Trp in […] cells. The conditions noted are these: read-out: % attenuation at 20 mM. The class given is cell-based.
Chain of D-amino acid oxidase (DAAO) (P00371 whole entry): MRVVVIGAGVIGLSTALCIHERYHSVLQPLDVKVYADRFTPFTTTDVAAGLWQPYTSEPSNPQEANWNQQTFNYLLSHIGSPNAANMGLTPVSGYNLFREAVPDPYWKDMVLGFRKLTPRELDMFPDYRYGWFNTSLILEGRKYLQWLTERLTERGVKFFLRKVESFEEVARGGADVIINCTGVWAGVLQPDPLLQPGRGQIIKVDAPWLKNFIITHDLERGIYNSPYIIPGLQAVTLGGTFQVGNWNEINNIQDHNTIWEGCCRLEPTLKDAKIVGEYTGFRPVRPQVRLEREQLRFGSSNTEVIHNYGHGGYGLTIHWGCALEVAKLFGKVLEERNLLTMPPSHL

Regarding `O=C(O)c1ccccc1` [sodium benzoate], the inhibition at 20000 µM came to 76%.
